Experimental data from patent publication US6863211B2, “Omega-hydrofluoroalkyl ethers, precursor carboxylic acids and derivatives thereof, and their preparation and application” (3M Innovative Properties Company, priority 1994, dated 2005).
Each block holds one molecule with its values, some of them ahead of it.

Legend:
[1] = Fire extinguishing agent evaluation, NFPA 2001 standard, modified cup burner; details: cup burner modified to handle liquid compounds
Procedure: Omega-hydrofluoroalkyl ether compounds of this invention were evaluated as fire extinguishing agents using the National Fire Protection Association 2001 Fire Protection Standard, with a cup burner modified to handle liquid compounds. The results, shown below in Table D, indicate that the compounds could be effective agents for fire extinguishing, explosion suppression, and as flammable atmosphere inerting agents.

[2] = Solubilities of selected hydrocarbon solvents in the ether hydride (precision cleaning); format: physicochemical
Procedure: A sample of this compound was evaluated for use in precision cleaning applications by measuring the solubilities of selected hydrocarbon solvents in the sample.

[3] = Spot-free drying: water displacement from glass and stainless steel coupons; details: 0.2% by weight C4F9OC2F4OCF2CONHC2H4OH dissolved in the ether, 45° C., ultrasonic agitation
Procedure: A sample of the compound was also evaluated for use in spot-free drying applications such as taught in U.S. Pat. No. 5,125,978 (Flynn et al.). A water displacement composition was prepared by dissolving 0.2% by weight of C4F9OC2F4OCF2CONHC2H4OH in C4F9—O—C2F4H. The solution was heated to 45° C. in an ultrasonic bath. Using the procedure described in U.S. Pat. No. 5,125,978, test coupons of glass and stainless steel were wetted with water and subsequently immersed into this solution with ultrasonic agitation. All water was displaced within 60 seconds.

[4] = Rinse agent in co-solvent cleaning of oil-contaminated aluminum coupon; details: 50° C., about 60 seconds methyl decanoate then about 60 seconds rinse agent, aluminum coupon with light hydrocarbon oil
Procedure: A sample of this compound was also evaluated for use as a rinse agent in co-solvent cleaning applications. (Such cleaning applications are taught, for example, in International Patent Publication No. WO 92/22678 (Petroferm Inc.). Organic esters such as methyl decanoate have found utility as solvating agents in two-phase cleaning applications using perfluorohexane as the carrier liquid and rinse agent.) Methyl decanoate and C4F9OC2F4H were placed in separate containers and heated to 50° C. in an ultrasonic bath. A 50 mm×25 mm×1.5 mm aluminum coupon was contaminated with 0.0831 g of a light hydrocarbon oil. The contaminated coupon was first immersed in the methyl decanoate for about 60 seconds and then immersed in the C4F9OC2F4H for about 60 seconds. The C4F9OC2F4H rinsed 100 percent (as determined by weight difference) of the oil and the methyl decanoate from the coupon.

[5] = Comparative boiling points; format: physicochemical
From the text: The unexpectedly low boiling points of compounds of the present invention render the compounds useful in processes involving temperature-sensitive substrates such as plastics. (For example, in vapor-phase cleaning, a substrate is rinsed in the condensing vapor of a boiling fluid, and in condensation heating, a substrate is heated by immersion in a boiling fluid.) In such applications, a lower-boiling fluid is preferred so as to avoid damage to the substrate. While it is known that boiling points can be reduced by selection of a compound having fewer carbon atoms, this may result in a boiling point reduction of 25° C. or more, in addition to adversely affecting other properties such as solvency.

SMILES: FC(F)C(F)(F)OC(F)(F)C(F)(F)C(F)(F)C(F)(F)F [C4F9OC2F4H, C4F9—O—C2F4H]
Extinguishment concentration [1]: 5.6 vol. %
Solubility of chloroform in the ether hydride ([2]; Chloroform): 45 % by weight
Solubility of ethylene glycol in the ether hydride ([2]; Ethylene glycol): less than 15 % by weight
Solubility of hydrocarbon solvent in the ether hydride ([2]; hexane, heptane, toluene, acetone, 2-butanone, 4-methyl-2-pentanone, ethyl acetate, methanol, ethanol, isopropanol, dimethyl formamide, trans-1,2-dichloroethylene, isopropyl ether): up to 50 % by weight
Solubility of light hydrocarbon oil in the ether hydride ([2]; light hydrocarbon oil): less than 0.05 % by weight
Solubility of o-xylene in the ether hydride ([2]; o-Xylene): 19 % by weight
Time for all water to be displaced [3]: ≤ 60 s
Oil and methyl decanoate rinsed from the coupon (by weight difference) [4]: 100%

SMILES: FC(F)C(F)(F)C(F)(F)C(F)(F)C(F)(F)OC(F)(F)C(F)(F)C(F)(F)C(F)(F)C(F)(F)F [C5F11OC5F10H, C5F11—O—(CF2)5H]
Boiling Point [5]: 150 °C

SMILES: FC(F)C(F)(F)C(F)(F)C(F)(F)OC(F)(F)C(F)(F)C(F)(F)C(F)(F)C(F)(F)C(F)(F)F [C6F13OC4F8H, C6F13—O—C4F8—H]
Boiling Point [5]: 149 °C

SMILES: FC(F)C(F)(F)OC(F)(F)C(F)(F)C(F)(F)C(F)(F)C(F)(F)C(F)(F)C(F)(F)F [C7F15OC2F4H, C7F15—O—C2F4H]
Boiling Point [5]: 131 °C

SMILES: FC(F)C(F)(F)C(F)(F)OC(F)(F)C(F)(F)C(F)F [HC3F6OC3F6H]
Extinguishment concentration [1]: 5.7 vol. %

SMILES: FC(F)(F)C(F)(F)C(F)(F)C(F)(F)C(F)(F)C(F)(F)F [perfluorohexane, reference compound]
Oil and methyl decanoate rinsed from the coupon (by weight difference) [4]: 98.5%

Now from value to molecule:

Boiling Point [5]: 136 °C
SMILES: FC(F)C(F)(F)C(F)(F)C(F)(F)C(F)(F)C(F)(F)C(F)(F)C(F)(F)C(F)(F)F [C8F17CF2H, reference compound]

Boiling Point [5]: 148 °C
SMILES: FC(F)C(F)(F)OC(F)(F)C(F)(F)C(F)(F)C(F)(F)C(F)(F)C(F)(F)C(F)(F)C(F)(F)F [C8F17OC2F4H, C8F17—O—C2F4H]

Boiling Point [5]: 139 °C
SMILES: FC(F)OC(F)(F)C(F)(F)C(F)(F)C(F)(F)C(F)(F)C(F)(F)C(F)(F)C(F)(F)F [C8F17OCF2H, C8F17—O—CF2H]

Boiling Point [5]: 154 °C
SMILES: FC(F)C(F)(F)C(F)(F)C(F)(F)C(F)(F)C(F)(F)C(F)(F)C(F)(F)C(F)(F)C(F)(F)F [C9F19CF2H, reference compound]

Boiling Point [5]: 155 °C
SMILES: FC(F)OC(F)(F)C(F)(F)C(F)(F)C(F)(F)C(F)(F)C(F)(F)C(F)(F)C(F)(F)C(F)(F)F [C9F19OCF2H]
